# Results reported in patent US8785445B2 (Array BioPharma Inc., priority 2008, dated 2014).
# Biological target: T1, human DP2 (Homo sapiens, UniProt Q9Y5Y4)
# T1 construct: expressed in transfected cells; membranes prepared
# T1 sequence (Q9Y5Y4 1-395): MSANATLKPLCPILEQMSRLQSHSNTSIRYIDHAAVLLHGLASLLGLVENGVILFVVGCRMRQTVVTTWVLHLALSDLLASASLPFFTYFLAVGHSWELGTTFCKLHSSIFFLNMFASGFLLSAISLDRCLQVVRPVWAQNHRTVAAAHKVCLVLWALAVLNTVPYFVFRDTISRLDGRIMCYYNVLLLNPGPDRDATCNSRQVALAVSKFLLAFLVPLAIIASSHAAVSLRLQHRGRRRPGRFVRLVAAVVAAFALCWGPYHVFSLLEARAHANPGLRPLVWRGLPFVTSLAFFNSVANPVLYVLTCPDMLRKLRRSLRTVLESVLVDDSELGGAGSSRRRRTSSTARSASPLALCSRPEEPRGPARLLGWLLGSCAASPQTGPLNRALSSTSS
# Assay: DP-2 binding inhibition assay (3H-PGD2, membranes of DP2-expressing K562 cells)
# Details: 0.1% BSA, read-out: EC50 (nM) 0.1% BSA
# How it was run: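 Membranes from K562 clones stably expressing human DP2 were incubated 60 min at room temperature with 3H-PGD2 and compound, with 0.1% BSA, 1% HSA or 4% HSA, then filtered and counted.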
row,SMILES,EC50 [nM]
1,"O=C(Nc1ccc(-c2ccc(C(F)(F)F)cc2)nn1)c1ccc(Oc2cc3c(cc2Cl)C(C(=O)O)CCO3)cc1 (centres unmarked) [Example 98, Sodium 6-chloro-7-(4-(6-(4-(trifluoromethyl)phenyl)pyridazin-3-ylcarbamoyl)phenoxy)chroman-4-carboxylate]",17.9
2,"O=C(Nc1cccc(-c2ccc(Cl)cc2)n1)c1ccc(Oc2c(Cl)cc3c(c2C2CC2)OCCC3C(=O)O)cc1 (centres unmarked) [Example 108, Sodium 6-chloro-7-(4-(6-(4-chlorophenyl)pyridin-2-ylcarbamoyl)phenoxy)-8-cyclopropylchroman-4-carboxylate]",8

# Same assay, conditions: 4% HSA, read-out: EC50 (nM) 4% HSA
row,SMILES,EC50 [nM]
1,"O=C(Nc1cnc(-c2ccc(Cl)cc2)cn1)c1ccc(Oc2cc3c(cc2Cl)C(C(=O)O)CCO3)cc1 (centres unmarked) [Example 95, 6-Chloro-7-(4-(5-(4-chlorophenyl)pyrazin-2-ylcarbamoyl)phenoxy)chroman-4-carboxylic acid]",365
2,"O=C(Nc1cnc(-c2cccc(Cl)c2)cn1)c1ccc(Oc2cc3c(cc2Cl)C(C(=O)O)CCO3)cc1 (centres unmarked) [Example 96, 6-Chloro-7-(4-(5-(3-chlorophenyl)pyrazin-2-ylcarbamoyl)phenoxy)chroman-4-carboxylic acid]",274
3,"O=C(Nc1ccc(-c2cccc(Cl)c2)nn1)c1ccc(Oc2cc3c(cc2Cl)C(C(=O)O)CCO3)cc1 (centres unmarked) [Example 97, 6-Chloro-7-(4-(6-(3-chlorophenyl)pyridazin-3-ylcarbamoyl)phenoxy)chroman-4-carboxylic acid]",203
4,"O=C(Nc1ccc(-c2ccc(C(F)(F)F)cc2)nn1)c1ccc(Oc2cc3c(cc2Cl)C(C(=O)O)CCO3)cc1 (centres unmarked) [Example 98, Sodium 6-chloro-7-(4-(6-(4-(trifluoromethyl)phenyl)pyridazin-3-ylcarbamoyl)phenoxy)chroman-4-carboxylate]",112
5,"O=C(Nc1ccc(-c2cccc(C(F)(F)F)c2)nn1)c1ccc(Oc2cc3c(cc2Cl)C(C(=O)O)CCO3)cc1 (centres unmarked) [Example 99, Sodium 6-chloro-7-(4-(6-(3-(trifluoromethyl)phenyl)pyridazin-3-ylcarbamoyl)phenoxy)chroman-4-carboxylate]",235
6,"O=C(Nc1ccnc(-c2ccc(Cl)cc2)n1)c1ccc(Oc2cc3c(cc2Cl)C(C(=O)O)CCO3)cc1 (centres unmarked) [Example 100, sodium 6-chloro-7-(4-(2-(4-chlorophenyl)pyrimidin-4-ylcarbamoyl)phenoxy)chroman-4-carboxylate]",46
7,"Cc1nc(NC(=O)c2ccc(Oc3cc4c(cc3Cl)C(C(=O)O)CCO4)cc2)cc(-c2ccc(Cl)cc2)n1 (centres unmarked) [Example 101, Sodium 6-chloro-7-(4-(6-(4-chlorophenyl)-2-methylpyrimidin-4-ylcarbamoyl)phenoxy)chroman-4-carboxylate]",998
8,"Cc1cc(NC(=O)c2ccc(Oc3cc4c(cc3Cl)C(C(=O)O)CCO4)cc2)nc(-c2ccc(C(F)(F)F)cc2)n1 (centres unmarked) [Example 102, Sodium 6-chloro-7-(4-(6-methyl-2-(4-(trifluoromethyl)phenyl)pyrimidin-4-ylcarbamoyl)phenoxy)chroman-4-carboxylate]",21.2
9,"O=C(Nc1cccc(-c2ccc(Cl)cc2Cl)n1)c1ccc(Oc2cc3c(cc2Cl)C(C(=O)O)CCO3)cc1 (centres unmarked) [Example 103, Sodium 6-chloro-7-(4-(6-(2,4-dichlorophenyl)pyridin-2-ylcarbamoyl)phenoxy)chroman-4-carboxylate]",57.1
10,"COc1cc(Cl)ccc1-c1cccc(NC(=O)c2ccc(Oc3cc4c(cc3Cl)C(C(=O)O)CCO4)cc2)n1 (centres unmarked) [Example 104, Sodium 6-chloro-7-(4-(6-(4-chloro-2-methoxyphenyl)pyridin-2-ylcarbamoyl)phenoxy)chroman-4-carboxylate]",116
11,"CC(C)Cc1cccc(NC(=O)c2ccc(Oc3cc4c(cc3Cl)C(C(=O)O)CCO4)cc2)n1 (centres unmarked) [Example 105, 6-Chloro-7-(4-(6-isobutylpyridin-2-ylcarbamoyl)phenoxy)chroman-4-carboxylic acid]",133
12,"O=C(Nc1cccc(-c2ccc(Cl)cc2)n1)c1ccc(Oc2c(Cl)cc3c(c2Br)OCCC3C(=O)O)cc1 (centres unmarked) [Example 106, Sodium 8-bromo-6-chloro-7-(4-(6-(4-chlorophenyl)pyridin-2-ylcarbamoyl)phenoxy)chroman-4-carboxylate]",87.7
13,"O=C(Nc1cccc(-c2ccc(Cl)cc2)n1)c1ccc(Oc2c(C3CC3)cc3c(c2C2CC2)OCCC3C(=O)O)cc1 (centres unmarked) [Example 107, Sodium 7-(4-(6-(4-chlorophenyl)pyridin-2-ylcarbamoyl)phenoxy)-6,8-dicyclopropylchroman-4-carboxylate]",52.2
14,"O=C(Nc1cccc(-c2ccc(Cl)cc2)n1)c1ccc(Oc2c(Cl)cc3c(c2C2CC2)OCCC3C(=O)O)cc1 (centres unmarked) [Example 108, Sodium 6-chloro-7-(4-(6-(4-chlorophenyl)pyridin-2-ylcarbamoyl)phenoxy)-8-cyclopropylchroman-4-carboxylate]",144
15,"O=C(Nc1cccc(-c2ccc(F)cc2)n1)c1ccc(Oc2cc3c(cc2Cl)C(C(=O)O)CCO3)cc1 (centres unmarked) [Example 109, 6-Chloro-7-(4-(6-(4-fluorophenyl)pyridin-2-ylcarbamoyl)phenoxy)chroman-4-carboxylic acid]",129
16,"O=C(Nc1cccc(-c2ccc(C(F)(F)F)cc2)n1)c1ccc(Oc2cc3c(cc2Cl)C(C(=O)O)CCO3)cc1 (centres unmarked) [Example 110, 6-Chloro-7-(4-(6-(4-(trifluoromethyl)phenyl)pyridin-2-ylcarbamoyl)phenoxy)chroman-4-carboxylic acid]",25.2
17,"O=C(Nc1cccc(C2CC2)n1)c1ccc(Oc2cc3c(cc2Cl)C(C(=O)O)CCO3)cc1 (centres unmarked) [Example 111, 6-Chloro-7-(4-(6-cyclopropylpyridin-2-ylcarbamoyl)phenoxy)chroman-4-carboxylic acid]",1460

row,SMILES,EC50 [nM]
1,"O=C(Nc1cccc(-c2cccc(C(F)(F)F)c2)n1)c1ccc(Oc2cc3c(cc2Cl)C(C(=O)O)CCO3)cc1 (centres unmarked) [Example 112, 6-Chloro-7-(4-(6-(3-(trifluoromethyl)phenyl)pyridin-2-ylcarbamoyl)phenoxy)chroman-4-carboxylic acid]",46
2,"O=C(Nc1cccc(-c2ccnc(C(F)(F)F)c2)n1)c1ccc(Oc2cc3c(cc2Cl)C(C(=O)O)CCO3)cc1 (centres unmarked) [Example 113, 6-Chloro-7-(4-(2′-(trifluoromethyl)-2,4′-bipyridin-6-ylcarbamoyl)phenoxy)chroman-4-carboxylic acid]",452
3,"CC(C)(C)c1cccc(NC(=O)c2ccc(Oc3cc4c(cc3Cl)C(C(=O)O)CCO4)cc2)n1 (centres unmarked) [Example 114, 7-(4-(6-tert-Butylpyridin-2-ylcarbamoyl)phenoxy)-6-chlorochroman-4-carboxylic acid]",276
4,"O=C(Nc1ccc(-c2ccc(Cl)cc2)cn1)c1ccc(Oc2cc3c(cc2Cl)C(C(=O)O)CCO3)cc1 (centres unmarked) [Example 115, 6-Chloro-7-(4-(5-(4-chlorophenyl)pyridin-2-ylcarbamoyl)phenoxy)chroman-4-carboxylic acid]",342
5,"O=C(Nc1ccc(-c2cccc(Cl)c2)cn1)c1ccc(Oc2cc3c(cc2Cl)C(C(=O)O)CCO3)cc1 (centres unmarked) [Example 116, 6-Chloro-7-(4-(5-(3-chlorophenyl)pyridin-2-ylcarbamoyl)phenoxy)chroman-4-carboxylic acid]",82.8
6,"O=C(Nc1ccc(-c2ccccc2Cl)cn1)c1ccc(Oc2cc3c(cc2Cl)C(C(=O)O)CCO3)cc1 (centres unmarked) [Example 117, 6-Chloro-7-(4-(5-(2-chlorophenyl)pyridin-2-ylcarbamoyl)phenoxy)chroman-4-carboxylic acid]",264
7,"O=C(Nc1ccc(-c2ccc(C(F)(F)F)cc2)cn1)c1ccc(Oc2cc3c(cc2Cl)C(C(=O)O)CCO3)cc1 (centres unmarked) [Example 118, 6-Chloro-7-(4-(5-(4-(trifluoromethyl)phenyl)pyridin-2-ylcarbamoyl)phenoxy)chroman-4-carboxylic acid]",100
8,O=C(Nc1ccc(-c2cccc(C(F)(F)F)c2)cn1)c1ccc(Oc2cc3c(cc2Cl)C(C(=O)O)CCO3)cc1 (centres unmarked) [Example 119],422
9,"O=C(Nc1cc(-c2ccc(Cl)cc2)ccn1)c1ccc(Oc2cc3c(cc2Cl)C(C(=O)O)CCO3)cc1 (centres unmarked) [Example 120, 6-Chloro-7-(4-(4-(4-chlorophenyl)pyridin-2-ylcarbamoyl)phenoxy)chroman-4-carboxylic acid]",2730
10,"O=C(Nc1cc(-c2cccc(Cl)c2)ccn1)c1ccc(Oc2cc3c(cc2Cl)C(C(=O)O)CCO3)cc1 (centres unmarked) [Example 121, 6-Chloro-7-(4-(4-(3-chlorophenyl)pyridin-2-ylcarbamoyl)phenoxy)chroman-4-carboxylic acid]",1890
11,"O=C(Nc1cc(-c2ccccc2Cl)ccn1)c1ccc(Oc2cc3c(cc2Cl)C(C(=O)O)CCO3)cc1 (centres unmarked) [Example 122, 6-Chloro-7-(4-(4-(2-chlorophenyl)pyridin-2-ylcarbamoyl)phenoxy)chroman-4-carboxylic acid]",2580
12,"O=C(Nc1ccc(-c2ccc(Cl)cc2)nc1)c1ccc(Oc2cc3c(cc2Cl)C(C(=O)O)CCO3)cc1 (centres unmarked) [Example 123, 6-Chloro-7-(4-(6-(4-chlorophenyl)pyridin-3-ylcarbamoyl)phenoxy)chroman-4-carboxylic acid]",294
13,"O=C(Nc1ccc(-c2cccc(Cl)c2)nc1)c1ccc(Oc2cc3c(cc2Cl)C(C(=O)O)CCO3)cc1 (centres unmarked) [Example 124, 6-Chloro-7-(4-(6-(3-chlorophenyl)pyridin-3-ylcarbamoyl)phenoxy)chroman-4-carboxylic acid]",133
14,"O=C(Nc1ccc(-c2ccccc2Cl)nc1)c1ccc(Oc2cc3c(cc2Cl)C(C(=O)O)CCO3)cc1 (centres unmarked) [Example 125, 6-Chloro-7-(4-(6-(2-chlorophenyl)pyridin-3-ylcarbamoyl)phenoxy)chroman-4-carboxylic acid]",627
15,"O=C(Nc1cncc(-c2ccc(Cl)cc2)c1)c1ccc(Oc2cc3c(cc2Cl)C(C(=O)O)CCO3)cc1 (centres unmarked) [Example 126, 6-Chloro-7-(4-(5-(4-chlorophenyl)pyridin-3-ylcarbamoyl)phenoxy)chroman-4-carboxylic acid]",469
16,"O=C(Nc1cncc(-c2cccc(Cl)c2)c1)c1ccc(Oc2cc3c(cc2Cl)C(C(=O)O)CCO3)cc1 (centres unmarked) [Example 127, 6-Chloro-7-(4-(5-(3-chlorophenyl)pyridin-3-ylcarbamoyl)phenoxy)chroman-4-carboxylic acid]",690
